# Measured values published in patent publication US8263344B2, “Compounds regulating calreticulin, KDEL receptor and/or Erp-57 cell surface exposure and uses thereof to evaluate the efficiency of a cancer treatment” (Institut Gustave Roussy, priority 2006, dated 2012).
# How the values were obtained:
# CT26 tumour cells = experiment: Anti-tumour vaccination with treated (dying) CT26 cells and challenge with live tumour cells; assay type: in vivo, BALB/c mice; conditions: dying CT26 cells injected into one flank, rechallenge with live tumour cells in opposite flank 8 days later
# CT26 cells = experiment: Phagocytosis of tumour cells by dendritic cells (DC); assay type: cell-based, BALB/c mice; conditions: within a few hours after treatment
# Method: BM cells were flushed from the tibias and femurs of BALB/c mice with culture medium composed of RPMI 1640 medium (Invitrogen Life Technologies) supplemented with 10% heat-inactivated FBS (Invitrogen), sodium pyruvate, 50 μM 2-ME (Sigma), 10 mM HEPES (pH 7.4), and penicillin/streptomycin (Invitrogen). After one centrifugation, BM cells were resuspended in Tris-ammonium chloride for 2 min to lyse RBC. After one more centrifugation, BM cells (1×10^6 cells/ml) were cultured in medium supplemented with 100 ng/ml recombinant mouse FLT3 ligand (R&D systems) in 6-well plates (Costar Corning). After 7 days, the non-adherent and loosely adherent cells were harvested with Versene, washed and transferred in 12-well plates (1.5×10^6 cells/plate) for cocultures with tumour cells.
# In 12-well plates, […] adherent CT26 cells were labelled with Celltracker Green (Calbiochem) and then incubated with drugs. In some experiments viable CT26 were coated with 2 μg/10^6 cells of chicken anti-CRT antibody (ABR affinity bioreagents) or an isotype control for 30 min prior to washing and feeding to dendritic cells Cs. Alternatively CT26 cells were coated with 2 μg/10^6 cells of rCRT on ice for 30 min and washed twice prior to addition to dendritic cells. Cells were then harvested, washed three times with medium supplemented with FBS and cocultured with immature DC for 2 hours at a ratio of 1:1 and 1:5. At the end of the incubation, cells were harvested with versene, pooled with non-adherent cells present in the supernatant, washed and stained with CD11c-FITC antibody. Phagocytosis was assessed by FACS analysis of double positive cells. Phagocytic indexes refer to the ratio between values obtained at 4° C. and values obtained at 37° C. of co-incubation between DC and tumour cells.
# CT26 tumours [1] = experiment: Single intratumoural injection into established CT26 tumours, immunocompetent mice; assay type: in vivo, BALB/c mice; conditions: established 14-day-old CT26 tumours
# CT26 tumours [2] = experiment: Single intratumoural injection into established CT26 tumours, athymic mice; design: species or system nu/nu Balb/c mice; conditions: mouse, in vivo
# HeLa cells = experiment: Surface ERp57 detection (immunofluorescence, flow cytometry); assay type: cell-based, human; conditions: 2 h; MTX 1 μM, Tau 150 nM
# Method: HeLa cells were cultured on cover slips (in RPM1160 medium supplemented with 10% fetal calf serum, L-glutamine and antibiotics), in the absence (control) or in the presence of 1 μM mitoxantrone (MTX, Sigma) for 2 h. For the intracellular stainings, HeLa cells were fixed and permeabilised by means of Cytofix/Cytoperm kit from Becton Dickinson according to the manufacturer's instructions. For the surface stainings, HeLa cells were fixed with paraformadehyde (4% w/v) on ice for 5 min. […] Nuclei were labelled with DAPI mounting medium (Vectashield). Fluorescence microscopy was analyzed with a Leica IRE2 equipped with a DC300F camera. Size bars represent 10 μm.
# HeLa cells were treated with or without mitoxantrone (MTX, 1 μM) or tautomycin (Tau, 150 nM, Sigma) for 2 h. Cells were washed twice with PBS and fixed in PFA (4% w/v) for 5 min. HeLa cells were stained with an antibody against Erp57 (pAb from Abcam, ab10827) at 1:200 dilution or isotype control, in staining buffer (PBS, 1% FCS) for 30 min on ice, followed by washing. An anti-rabbit Alexa fluor 488 immunoglobulin conjugate (Molecular Probes-Invitrogen) diluted at 1:500 was added for an additional 30 min on ice before washing and analysed by flow cytometry (FACScan, Becton Dickinson). […] The CellQuest software was used to analyse the mean fluorescence intensity (MFI) and the percentage of ERp57 positive cells.
# FIG. 12: ERp57 exposure depends on the activation of a caspase. • (A) HeLa cells were treated with MTX (1 μM) for 2 h in the presence or absence of 50 μM zVAD.fmk. The MFI of surface Erp57 positive cells was analysed as described in FIG. 9. • (B) HCT116 parental cells stably transfected with either a vector encoding p35 (Stennicke et al., 2002; Date et al., 2003) or with a PCMV vector (Sigma) as control, were treated with MTX (1 μM) for 2 h. The MFI of surface Erp57 positive cells was analysed as described in FIG. 9. • (C) HCT116 cells were pre-incubated in the presence of 50 μM biotinylated VAD.fmk (Calbiochem) for 2 h. […]
# CT26 cytoplasts = experiment: CRT exposure on enucleated cells (cytoplasts); assay type: cell-based, murine
# Method: FIG. 5A: CRT exposure after anthracyclin treatment in the absence of a nucleus. Intact cells or enucleated cells (cytoplasts) were treated for 2 hours with mitoxantrone, followed by immunofluorescence detection of CRT exposure. Inserts show the effective removal of Hoechst 33342-stainable nuclei from the cytoplasts.
# Trypsinized CT26 cells were enucleated as described in the publication of Andreau, K. et al. Contagious apoptosis facilitated by the HIV-1 envelope. Fusion-induced cell-to-cell transmission of a lethal signal. J. Cell Sci. 117, 5643-53 (2004). Briefly, cells were treated in 2 ml of complete RPMI medium containing cytochalasin B (10 μg/ml; Sigma) and DNase I (80 U/ml; Sigma). Cell suspension was adjusted to a final concentration of 5×10^6/ml and incubated at 37° C. for 45 minutes before being layered onto a previously prepared discontinuous Ficoll (Pharmacia) density gradient (3 ml of 100%, in 1 ml of 90% and 3 ml of 55% Ficoll Paque layer containing 5 μg/ml cytochalasin B and 40 U/ml DNase I; gradients were prepared in ultracentrifuge tubes and pre-equilibrated at 37° C. in a CO2 incubator overnight). […] Then the cell surface CRT was detected (see materials and methods) and the viability was determined by with propidium iodine staining (2 μg/ml, Sigma) for 5 min followed by cytofluorometric analysis. […] Phagocytosis was assessed by FACS analysis of double positive cells.
# MCA205, B16F10, J558 = experiment: CRT exposure on a panel of murine tumour cell lines; assay type: cell-based
# HeLa, A549, HCT116 = experiment: CRT exposure on a panel of human tumour cell lines; assay type: cell-based
compound,measurement,setting,value
O=C1c2c(O)ccc(O)c2C(=O)c2c(NCCNCCO)ccc(NCCNCCO)c21 [mitoxantrone],immunogenic apoptosis / immunogenic cell death (protection against tumour growth),CT26 tumour cells,elicited immunogenic cell death
same,phagocytosis of treated tumour cells by DC,CT26 cells,acquired the property to be phagocytosed by DC
same,"therapeutic effect of intratumoural injection, single agent, immunocompetent mice",CT26 tumours [1],permanent regression in some but not all cases
same,"therapeutic effect of intratumoural injection, single agent, nu/nu mice",CT26 tumours [2],no cure
same,surface exposure of ERp57,HeLa cells,appear on the surface
same,time to CRT exposure in enucleated cells (cytoplasts),CT26 cytoplasts,≤ 1 h
same,"CRT exposure, murine tumour cell lines","MCA205, B16F10, J558",induced CRT exposure
same,"CRT exposure, human tumour cell lines","HeLa, A549, HCT116",induced CRT exposure
